This is an account of results in patent US20070026478A1, “Hemiasterlin affinity probes and their uses” (WYETH, priority 2002, published 2007).

In one assay the target is T1, bovine MAP-rich tubulin (Bos taurus, UniProt P81947+Q6B856).
T1 construct: MAP-rich bovine brain tubulin (99% purity), Hela cell tubulin (90% purity); purchased Cytoskeleton (Denver, Colo.); host or cells: bovine brain
The assay can be described thus: Tubulin polymerization assay in a cell-free system. As to conditions: 0.3 μM compound. In kind it is biochemical. As to the method:
In vitro tubulin polymerization assays were performed according to procedures that have been described elsewhere (Loganzo et al., Cancer Res. 2003, 63:1838-1845). Briefly, bovine MAP-rich tubulin (final concentration 1.5 mg/mL) was dissolved in cold PEM buffer containing 1 mM GTP (GPEM) and centrifuged at 12,000×g for 10 minutes at 4° C. The tubulin solution (100 μL/well) was added rapidly to wells of a low-volume, 96-well plate already containing duplicate aliquots (10 μL) of test compounds in GPEM. Final compound concentrations were 0.3 μM. Control wells contained the same final concentration of DMSO (0.3%). After initiation of the reaction, absorbance at 340 nm was measured every minute for 60 minutes at 24° C. using a SpectraMax Plus plate reader (Molecular Devices, Sunnyvale, Calif.). An increase in absorbance over time indicated an increase in turbidity resulting from tubulin polymerization.

Another assay concerns the target T2, bovine brain tubulin (Bos taurus, UniProt P81947+Q6B856).
T2 construct: MAP-rich bovine brain tubulin (99% purity), Hela cell tubulin (90% purity); purchased Cytoskeleton (Denver, Colo.); host or cells: bovine brain
The assay can be described thus: Radiolabeled Probe 1 binding by centrifugal gel filtration. As to conditions: 0.5 μM tubulin, 0.005-5 μM radiolabeled Probe 1, room temperature; read-out: apparent KD, radiolabeled probe technique. As for the experimental part:
Binding of Probe 1 to bovine brain tubulin was also assessed by incubating 0.5 μM tubulin with 0.005-5 μM radiolabeled Probe 1 both in the presence and in the absence of 5 μM non-radiolabeled probe 1 as a competitor. Incubations were performed for 30 minutes at room temperature in PEM buffer. Binding was measured using centrifugal gel filtration on Sephadex G-50 (Microspin G-50) as described (Bai et al., Cancer Res. 1996, 56:4398-4406). Spin columns (Amersham Biosciences, Piscataway, N.J.) were centrifugated for 1 minute at 2000 rpm in a microcentrifuge immediately prior to use, and samples applied in 50 μL total volume, followed by a 2 minute centrifugation at the same speed. The amount of probe 1 bound to tubulin was quantitated by measuring the radioactivity within aliquots collected after centrifugation. The KD value, representing 50% of specific binding, was calculated from the curve generated by subtracting the amount of […].

T2 sequence (P81947 whole entry): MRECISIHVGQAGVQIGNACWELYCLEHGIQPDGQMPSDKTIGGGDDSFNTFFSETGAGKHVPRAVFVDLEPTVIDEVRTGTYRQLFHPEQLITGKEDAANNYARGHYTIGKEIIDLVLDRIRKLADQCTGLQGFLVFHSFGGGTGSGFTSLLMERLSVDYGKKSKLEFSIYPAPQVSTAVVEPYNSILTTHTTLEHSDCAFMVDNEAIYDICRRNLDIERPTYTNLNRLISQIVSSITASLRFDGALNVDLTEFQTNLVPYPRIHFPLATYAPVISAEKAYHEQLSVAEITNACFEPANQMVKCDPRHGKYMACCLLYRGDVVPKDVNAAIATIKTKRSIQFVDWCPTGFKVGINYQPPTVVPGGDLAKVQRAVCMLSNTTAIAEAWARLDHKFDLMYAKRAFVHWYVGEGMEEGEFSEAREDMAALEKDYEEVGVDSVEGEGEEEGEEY
T2 sequence (Q6B856 whole entry): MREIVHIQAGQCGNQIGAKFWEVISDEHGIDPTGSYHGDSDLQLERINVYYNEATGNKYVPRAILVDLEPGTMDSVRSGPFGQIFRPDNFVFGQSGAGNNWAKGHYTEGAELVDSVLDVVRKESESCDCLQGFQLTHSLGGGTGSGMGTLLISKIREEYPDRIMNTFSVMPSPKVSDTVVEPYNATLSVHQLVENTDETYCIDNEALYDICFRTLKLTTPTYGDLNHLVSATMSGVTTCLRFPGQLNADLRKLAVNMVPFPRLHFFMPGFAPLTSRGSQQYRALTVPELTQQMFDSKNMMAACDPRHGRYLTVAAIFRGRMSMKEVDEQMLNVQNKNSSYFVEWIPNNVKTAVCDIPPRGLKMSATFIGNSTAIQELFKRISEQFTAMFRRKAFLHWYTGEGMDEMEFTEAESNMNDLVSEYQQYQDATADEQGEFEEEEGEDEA
T1 sequence (P81947 whole entry): as the sequence (P81947 whole entry) above
T1 sequence (Q6B856 whole entry): as the sequence (Q6B856 whole entry) above

Compound `CN[C@H](C(=O)N[C@H](C(=O)N(C)[C@H](/C=C(\C)C(=O)O)C(C)C)C(C)(C)C)C(C)(C)c1ccc(C(=O)c2ccccc2)cc1` [Probe 1, 4-benzoyl-N,β,β-trimethyl-L-phenylalanyl-N^1-[(1S,2E)-3-carboxy-1-isopropylbut-2-enyl]-N^1,3-dimethyl-L-valinamide] gave an inhibition at 0.3 µM against bovine MAP-rich tubulin of 88%. For the same compound, on bovine brain tubulin, the Kd worked out at 350 nM.
